In the OPERA property sets (Mansouri et al. 2018) one finds logP data, which are given here for 20 compounds.

`CC=NN(C(=O)c1ccccc1)c1ccccc1` showed a lipophilicity (logP) of 2.76.
`COc1ccc(C(=O)N(NC(=S)Nc2ccccc2)c2ccccc2)cc1` yielded a logP of 3.94.
In turn, `O=C(c1ccccc1)N(NC(=S)Nc1ccccc1)c1ccccc1` displayed a logP of 3.73.
As for `CN(NC(=S)Nc1ccccc1)C(=O)c1ccc([N+](=O)[O-])cc1`, the logP stood at 2.68.
In turn, `COc1ccc(C(=O)N(C)NC(=S)Nc2ccccc2)cc1` came in with a log partition coefficient (logP) of 2.56.
Turning to `CN(NC(=S)Nc1ccccc1)C(=O)c1ccccc1`, the lipophilicity (logP) turned out to be 2.47.
In the case of `CC=NN(C(=O)c1ccc(OC)cc1)c1ccccc1` it was 3.18; in that of `CC=NN(C(=O)c1ccc(C)cc1)c1ccccc1`, 3.6; in that of `COc1ccc(C(=O)N(C)N)cc1`, 1.
The compound `NN(C(=O)c1ccc([N+](=O)[O-])cc1)c1ccccc1` yielded a logP of 2.48.
The compound `Cc1ccc(C(=O)N(N)c2ccccc2)cc1` registered a log partition coefficient (logP) of 3.
In turn, `NN(C(=O)c1ccccc1)c1ccccc1` gave a logP of 2.3.
Regarding `CC=NN(C(=O)c1ccc([N+](=O)[O-])cc1)c1ccccc1`, the logP is 3.08.
`CN(N)C(=O)c1ccc([N+](=O)[O-])cc1` showed a logP of 0.75.
Consider `Cc1ccc(C(=O)N(C)N)cc1`, for which the lipophilicity (logP) stood at 1.36.
In the case of `O=C(c1ccc([N+](=O)[O-])cc1)N(NC(=S)Nc1ccccc1)c1ccccc1` it was 3.87; in that of `Cc1ccc(C(=O)N(C)NC(=S)Nc2ccccc2)cc1`, 3.01.
Compound `Cc1ccc(C(=O)N(NC(=S)Nc2ccccc2)c2ccccc2)cc1` came in with a log partition coefficient (logP) of 4.08.
The same measure for `CN(N)C(=O)c1ccccc1`: 0.7; for `COc1ccc(C(=O)N(N)c2ccccc2)cc1`: 2.83.
